Data from patent US5468769A, “Paclitaxel derivatives” (Abbott Laboratories, priority 1993, dated 1995).
≈ marks a conversion by molar mass, not a printed value. Read-outs that look alike come from different tables or passages of the source.

Key:
[1] = system: P388; test: In vitro tumor cell cytotoxicity (MTT colorimetric growth inhibition); format: cell-based, mouse; details: P388, 72 h
Procedure: (§1) The compounds of the present invention were tested for in vitro cytotoxic activity against the tumor lines A549 […], HT-29 […], B16F10 (mouse melanoma) and P-388 (mouse leukemia). Concentrations of 50% growth inhibition (IC50 's) were measured in a colorimetric assay for cytotoxic activity against cultured cells according to the protocol described below:
(§2) A three-day microtiter assay was used to measure the growth inhibition of cultured cells exposed to a range of drug concentrations. Metabolic activity, and thus the continued survival of cells exposed to the test compounds, was measured by the cells' ability to reduce the tetrazolium dye, MTT (3-(4,5-dimethyl-thiazol-2-yl-2,5-diphenyltetrazolium bromide) to a quantifiable colored end product, which absorbs at 570 nm in the visible spectrum.
(§3) Test compounds were dissolved in dimethyl sulfoxide (DMSO) and diluted, first with Earle's Balanced Salt Solution followed by culture medium, to twice the highest concentration of compound to be tested. From this concentrated stock, twofold serial dilutions were prepared in 96-well microtiter trays, each well containing twice the desired final concentration of compound. Each concentration was tested in triplicate and compared to triplicate drug-free controls.
(§4) The cells were grown in the same medium used for diluting the compounds and then harvested using trypsinization. This involved removing the medium by aspiration; rinsing the cell monolayer twice with Earle's Balanced Salt Solution; adding trypsin (0.05%)/EDTA (0.53 mM; for each 25 cm^2, approximately 0.2 mL), tilting to cover the monolayer, and then withdrawing trypsin leaving only a thin film of solution; incubating at room temperature until the cell monolayers detached (as determined by visual and/or microscopic observation); adding medium containing fetal calf serum to stop the action of the trypsin and resuspend the cells; triturating to aid dissociation of cell clumps; and determining the number of cells per milliliter by electronic cell counter (e.g. Coulter Counter) or by mixing an aliquot of cell suspension with Trypan Blue (0.4% in normal saline) and counting the viable cells using a hemacytometer.
(§5) After harvesting and determination of viable cell counts, cell density was adjusted to 25,000 cells/mL. Inoculum (0.1 mL) containing the cells was then added to each well for a final concentration of 2,500 cells per well. Addition of the inoculum diluted the test compounds to the desired final concentration.
(§6) Microtiter trays were then incubated for three days at 36 ° C. in a humidified atmosphere containing 5% carbon dioxide. After three days, 20 microtiters of 5 mg/mL MTT in phosphate-buffered saline solution were added to each well. Trays were returned to the incubator for two to four hours to allow the surviving cells to reduce the dye. Medium and unreduced dye were removed by aspiration. DMSO was added to each well to dissolve the water-insoluble, colored end product of the dye reduction so that it could be measured spectrophotometrically at 570 nm. The IC50 was determined as the concentration of compound tested required to reduce the absorbance at 570 nm to 50% of non-drug treated control values.

[2] = system: B16F10; test: as above; format: cell-based, mouse; details: B16-F10, 72 h
Procedure: as §1, §2, §3, §4, §5, §6

[3] = system: A549; test: as above; format: cell-based; details: Homo sapiens
Procedure: as §1, §2, §3, §4, §5, §6

[4] = system: HT-29; test: as above; format: cell-based; details: Homo sapiens
Procedure: as §1, §2, §3, §4, §5, §6

[5] = system: a number of other tumor types; details: preliminary investigations; cited from earlier work
[6] = system: advanced breast and ovarian cancers; details: cited from earlier work

Structure (SMILES)	IC50 ([1]; Mus musculus) [ng/mL]	IC50 ([2]; Mus musculus) [ng/mL]	IC50 ([3]; A549, 72 h) [ng/mL]	IC50 ([4]; HT-29, 72 h) [ng/mL]	IC50 ([1]; P-388 (mouse leukemia), three-day microtiter assay, MTT, 570 nm, read-out: IC50) [ng/mL]	IC50 ([2]; B16F10 (mouse melanoma), three-day microtiter assay, MTT, 570 nm, read-out: IC50) [ng/mL]	IC50 ([3]; 72 h, A549, three-day microtiter assay, MTT, 570 nm, read-out: IC50) [ng/mL]	IC50 ([4]; 72 h, HT-29, three-day microtiter assay, MTT, 570 nm, read-out: IC50) [ng/mL]	activity against other tumor types [5]	effectiveness in clinical trials [6]
CC(=O)O[C@@H]1C2=C(C)[C@@H](OC(=O)[C@H](O)[C@@H](NC(=O)c3ccccc3)c3ccccc3)C[C@@](O)([C@@H](OC(=O)c3ccccc3)[C@@H]3[C@]4(OC(C)=O)CO[C@@H]4C[C@H](C)[C@@]13C=O)C2(C)C [Example 4, β-Benzoylamino-α-hydroxybenzenepropanoic acid 4,9-bis(acetyloxy)-2-benzoyloxy-8-formyl-1.2.3.4.5.6.7.8.10.13.14-undecahydro-1-hydroxy-7.14.14.17-tetramethyl-1.10-m,ethano-20H-cyclonona[2.3]benz[1.2-b]oxet-12-yl ester]	32 (≈ 0.0382 µM)	45 (≈ 0.0537 µM)	17 (≈ 0.0203 µM)	76 (≈ 0.0907 µM)	–	–	–	–	–	–
CC(=O)O[C@@H]1C2=C(C)[C@@H](OC(=O)[C@H](O)[C@@H](NC(=O)OC(C)(C)C)c3ccccc3)C[C@@](O)([C@@H](OC(=O)c3ccccc3)[C@@H]3[C@]4(OC(C)=O)CO[C@@H]4C[C@H](C)[C@@]13C=O)C2(C)C [Example 3, 8-tert-Butyloxycarbonylamino-α-hydroxybenzenepropanoic acid 4,9-bis(acetyloxy)-2-benzoyloxy-8-formyl-1.2.3.4.5.6.7.8.10.13.14-undecahydro-1-hydroxy-7.14.14.17-tetramethyl-1.10-methano-20H-cyclonona[2.3]benz[1.2.b]oxet-12-yl ester]	–	–	–	–	8.3 (≈ 0.00995 µM)	4.6 (≈ 0.00552 µM)	9.8 (≈ 0.0118 µM)	5.4 (≈ 0.00648 µM)	–	–
CC(=O)O[C@H]1C(=O)[C@@]2(C)[C@H]([C@H](OC(=O)c3ccccc3)[C@]3(O)C[C@H](OC(=O)[C@H](O)[C@@H](NC(=O)c4ccccc4)c4ccccc4)C(C)=C1C3(C)C)[C@]1(OC(C)=O)CO[C@@H]1C[C@@H]2O [Paclitaxol, Paclitaxel]	9.6 (≈ 0.0112 µM)	3.1 (≈ 0.00363 µM)	3.4 (≈ 0.00398 µM)	2.5 (≈ 0.00293 µM)	–	–	–	–	promising activity against a number of other tumor types	effective against advanced breast and ovarian cancers
